Experiments:
Format in all cases: in vivo
corn (Zea mays) = assay: Test C pre/postemergence
Procedure, shortened: (§1)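 Test compounds, formulated in a non-phytotoxic solvent mix with surfactant, were applied to freshly planted seeds and, at the same time, to emerged plants at 1- to 4-leaf stage (2 to 18 cm). After 12 to 14 days in the greenhouse, response was scored visually versus controls, 0 = no effect, 100 = complete control.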

[1] = tested on: morningglory (Ipomoea coccinea); assay: Test C pre/postemergence; conditions: for Morningglory plant response rating: scale 0 to 100 (0 no effect, 100 complete control)
Procedure, shortened: as §1

[2] = tested on: woolly cupgrass (Eriochloa villosa); assay: Test C pre/postemergence; conditions: for Cupgrass, Woolly plant response rating: scale 0 to 100 (0 no effect, 100 complete control)
Procedure, shortened: as §1

[3] = tested on: ducksalad (Heteranthera limosa); assay: Test E flooded paddy water application; conditions: Flood, 21 days, scale 0 to 100 (0 no effect, 100 complete control); for Plant response rating, Ducksalad: 16 g ai/ha
Procedure, shortened: (§2)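 Greenhouse pots of Tama silt loam with weeds and rice at 2.0–2.5-leaf stage, flooded to 3 cm; compounds applied directly into paddy water, depth maintained. Visual rating versus untreated controls after 21 days, 0 (no effect) to 100 (complete control); 29.5/26.7 °C, 16-h photoperiod.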

[4] = tested on: early watergrass (Echinochloa oryzoides); assay: Test E flooded paddy water application; conditions: Flood, 21 days, scale 0 to 100 (0 no effect, 100 complete control); for Plant response rating, Watergrass, Early: 16 g ai/ha
Procedure, shortened: as §2

[5] = tested on: junglerice (Echinochloa colona); assay: Test E flooded paddy water application; conditions: Flood, 21 days, scale 0 to 100 (0 no effect, 100 complete control); for Plant response rating, Junglerice: 16 g ai/ha
Procedure, shortened: as §2

[6] = tested on: smallflower umbrella sedge (Cyperus difformis); assay: Test E flooded paddy water application; conditions: Flood, 21 days, scale 0 to 100 (0 no effect, 100 complete control); for Plant response rating, Sedge, Umbrella: 16 g ai/ha
Procedure, shortened: as §2

[7] = tested on: water seeded rice seedlings (Oryza sativa cv. ‘Japonica-M202’); assay: Test E flooded paddy water application; conditions: Flood, 21 days, scale 0 to 100 (0 no effect, 100 complete control); for Plant response rating, Rice, Water Seeded: 16 g ai/ha
Procedure, shortened: as §2

[8] = Postemergence, 250 g ai/ha, scale 0 to 100
[9] = Preemergence, 16 g ai/ha, scale 0 to 100, 0 no effect, 100 complete control
[10] = Preemergence, 31 g ai/ha, scale 0 to 100, 0 no effect, 100 complete control
[11] = Preemergence, 62 g ai/ha, scale 0 to 100, 0 no effect, 100 complete control
[12] = Preemergence, 125 g ai/ha, scale 0 to 100

## Nc1nc(-c2ccc(Cl)cc2)nc(C(=O)O)c1Br [Compound 88]
Corn (Zea mays); Postemergence, 31 g ai/ha
  Plant response rating (scale of 0 to 100), Corn: 0
Corn (Zea mays); Postemergence, 62 g ai/ha
  Plant response rating (scale of 0 to 100), Corn: 0
Corn (Zea mays); [8]
  Plant response rating, Corn: 30
[1]; Postemergence, 31 g ai/ha
  Plant response rating (scale of 0 to 100), Morningglory: 60
[1]; Postemergence, 125 g ai/ha
  Morningglory plant response rating: 85
[1]; [8]
  Plant response rating, Morningglory: 85
[2]; Postemergence, 31 g ai/ha
  Plant response rating (scale of 0 to 100), Cupgrass, Woolly: 70
[2]; Postemergence, 62 g ai/ha
  Plant response rating (scale of 0 to 100), Cupgrass, Woolly: 75
[2]; Postemergence, 125 g ai/ha
  Cupgrass, Woolly plant response rating: 85
[2]; [8]
  Plant response rating, Cupgrass, Woolly: 85
[3]; 32 g ai/ha
  Ducksalad plant response rating: 100
[3]; 64 g ai/ha
  Ducksalad plant response rating: 100
[3]; 125 g ai/ha
  Ducksalad plant response rating: 100
[3]; 250 g ai/ha
  Ducksalad plant response rating: 100
[3]
  Plant response rating, Ducksalad: 95
[4]; 32 g ai/ha
  Watergrass, Early plant response rating: 0
[4]; 64 g ai/ha
  Watergrass, Early plant response rating: 0
[4]; 125 g ai/ha
  Watergrass, Early plant response rating: 0
[4]; 250 g ai/ha
  Watergrass, Early plant response rating: 50
[4]
  Plant response rating, Watergrass, Early: 0
[5]; 32 g ai/ha
  Junglerice plant response rating: 0
[5]; 64 g ai/ha
  Junglerice plant response rating: 0
[5]; 125 g ai/ha
  Junglerice plant response rating: 0
[5]; 250 g ai/ha
  Junglerice plant response rating: 90
[5]
  Plant response rating, Junglerice: 0
[6]; 32 g ai/ha
  Sedge, Umbrella plant response rating: 40
[6]; 125 g ai/ha
  Sedge, Umbrella plant response rating: 85
[6]; 250 g ai/ha
  Sedge, Umbrella plant response rating: 95
[6]
  Plant response rating, Sedge, Umbrella: 40
[7]; 32 g ai/ha
  Rice, Water Seeded plant response rating: 0
[7]; 64 g ai/ha
  Rice, Water Seeded plant response rating: 0
[7]; 125 g ai/ha
  Rice, Water Seeded plant response rating: 0
[7]; 250 g ai/ha
  Rice, Water Seeded plant response rating: 0
[7]
  Plant response rating, Rice, Water Seeded: 0

## Nc1nc(-c2ccc(Cl)cc2)nc(C(=O)[O-])c1Cl.[Na+] [Compound 117]
Corn (Zea mays); Postemergence, 16 g ai/ha
  Plant response rating (scale of 0 to 100), Corn: 30
Corn (Zea mays); Postemergence, 31 g ai/ha
  Plant response rating (scale of 0 to 100), Corn: 30
Corn (Zea mays); [9]
  Plant response rating, Corn: 0
Corn (Zea mays); [10]
  Plant response rating, Corn: 5
Corn (Zea mays); [11]
  Plant response rating, Corn: 20
Corn (Zea mays); [12]
  Plant response rating, Corn: 25
[1]; Postemergence, 16 g ai/ha
  Plant response rating (scale of 0 to 100), Morningglory: 20
[1]; Postemergence, 31 g ai/ha
  Plant response rating (scale of 0 to 100), Morningglory: 50
[1]; Postemergence, 62 g ai/ha
  Plant response rating (scale of 0 to 100), Morningglory: 50
[1]; Postemergence, 125 g ai/ha
  Morningglory plant response rating: 50
[1]; [9]
  Plant response rating, Morningglory: 0
[1]; [10]
  Plant response rating, Morningglory: 0
[1]; [11]
  Plant response rating, Morningglory: 5
[1]; [12]
  Plant response rating, Morningglory: 50
[2]; Postemergence, 16 g ai/ha
  Plant response rating (scale of 0 to 100), Cupgrass, Woolly: 60
[2]; Postemergence, 31 g ai/ha
  Plant response rating (scale of 0 to 100), Cupgrass, Woolly: 80
[2]; Postemergence, 62 g ai/ha
  Plant response rating (scale of 0 to 100), Cupgrass, Woolly: 80
[2]; Postemergence, 125 g ai/ha
  Cupgrass, Woolly plant response rating: 85
[2]; [9]
  Plant response rating, Cupgrass, Woolly: 0
[2]; [10]
  Plant response rating, Cupgrass, Woolly: 0
[2]; [11]
  Plant response rating, Cupgrass, Woolly: 15
[2]; [12]
  Plant response rating, Cupgrass, Woolly: 50
[3]; 32 g ai/ha
  Ducksalad plant response rating: 100
[3]; 64 g ai/ha
  Ducksalad plant response rating: 100
[3]; 125 g ai/ha
  Ducksalad plant response rating: 100
[3]; 250 g ai/ha
  Ducksalad plant response rating: 100
[3]
  Plant response rating, Ducksalad: 100
[4]; 32 g ai/ha
  Watergrass, Early plant response rating: 0
[4]; 64 g ai/ha
  Watergrass, Early plant response rating: 0
[4]; 125 g ai/ha
  Watergrass, Early plant response rating: 0
[4]; 250 g ai/ha
  Watergrass, Early plant response rating: 0
[4]
  Plant response rating, Watergrass, Early: 0
[5]; 32 g ai/ha
  Junglerice plant response rating: 0
[5]; 64 g ai/ha
  Junglerice plant response rating: 0
[5]; 125 g ai/ha
  Junglerice plant response rating: 0
[5]; 250 g ai/ha
  Junglerice plant response rating: 0
[5]
  Plant response rating, Junglerice: 0
[6]; 32 g ai/ha
  Sedge, Umbrella plant response rating: 85
[6]; 64 g ai/ha
  Sedge, Umbrella plant response rating: 100
[6]; 125 g ai/ha
  Sedge, Umbrella plant response rating: 100
[6]; 250 g ai/ha
  Sedge, Umbrella plant response rating: 100
[6]
  Plant response rating, Sedge, Umbrella: 60
[7]; 32 g ai/ha
  Rice, Water Seeded plant response rating: 0
[7]; 64 g ai/ha
  Rice, Water Seeded plant response rating: 0
[7]; 125 g ai/ha
  Rice, Water Seeded plant response rating: 0
[7]; 250 g ai/ha
  Rice, Water Seeded plant response rating: 0
[7]
  Plant response rating, Rice, Water Seeded: 0

From patent US8802597B2, “Herbicidal pyrimidines” (E I du Pont de Nemours and Company, priority 2003, dated 2014)
